Results from paper PMC8706783 (Pharmaceutics, 2021).

What was measured:
CYP2C19 = CYP2C19 (Homo sapiens, UniProt P33261); assay: Enzyme inhibition assay, CYP2C19; details: HLM; CYP2C19 S-mephenytoin 4′-hydroxylation
UGT1A7 = molecular target: T1, UGT1A7 (Homo sapiens, UniProt Q9HAW7); assay: Enzyme inhibition assay, UGT1A7
T1 sequence (Q9HAW7 26-530): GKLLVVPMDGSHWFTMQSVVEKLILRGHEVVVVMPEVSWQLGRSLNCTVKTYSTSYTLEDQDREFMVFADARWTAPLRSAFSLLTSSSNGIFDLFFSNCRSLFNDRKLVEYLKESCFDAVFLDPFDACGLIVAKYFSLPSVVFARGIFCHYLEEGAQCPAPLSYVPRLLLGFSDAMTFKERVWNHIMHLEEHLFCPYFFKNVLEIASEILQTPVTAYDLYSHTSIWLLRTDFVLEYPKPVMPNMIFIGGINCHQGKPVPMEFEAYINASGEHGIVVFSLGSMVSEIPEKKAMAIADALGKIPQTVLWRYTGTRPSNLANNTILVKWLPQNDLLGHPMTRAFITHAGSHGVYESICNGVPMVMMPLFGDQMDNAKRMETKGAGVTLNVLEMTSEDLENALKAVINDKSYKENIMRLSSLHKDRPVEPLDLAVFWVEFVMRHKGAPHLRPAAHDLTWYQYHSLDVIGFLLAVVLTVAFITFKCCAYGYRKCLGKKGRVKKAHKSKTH

UGT1A8 = molecular target: T2, UGT1A8 (Homo sapiens, UniProt Q9HAW9); assay: Enzyme inhibition assay, UGT1A8
T2 sequence (Q9HAW9 26-530): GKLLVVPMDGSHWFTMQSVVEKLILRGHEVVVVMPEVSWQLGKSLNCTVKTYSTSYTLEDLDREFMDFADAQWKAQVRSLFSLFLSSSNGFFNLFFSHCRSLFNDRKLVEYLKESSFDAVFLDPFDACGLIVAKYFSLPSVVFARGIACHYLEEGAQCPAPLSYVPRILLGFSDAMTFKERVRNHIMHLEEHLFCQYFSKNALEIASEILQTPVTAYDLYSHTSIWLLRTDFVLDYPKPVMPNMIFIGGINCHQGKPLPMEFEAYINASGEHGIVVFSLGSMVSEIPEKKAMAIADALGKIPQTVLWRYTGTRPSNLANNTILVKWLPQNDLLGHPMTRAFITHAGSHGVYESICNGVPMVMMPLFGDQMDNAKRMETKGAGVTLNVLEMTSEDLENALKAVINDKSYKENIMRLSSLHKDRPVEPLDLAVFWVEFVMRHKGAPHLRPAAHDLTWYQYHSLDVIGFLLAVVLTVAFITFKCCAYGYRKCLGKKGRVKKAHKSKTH

UGT1A1 = molecular target: T3, UGT1A1 (Homo sapiens, UniProt P22309); assay: Enzyme inhibition assay, UGT1A1; type: in vitro ADME; details: HLM; UGT1A1 SN38 glucuronidation; read-out: IC50
T3 construct: from tissue
T3 sequence (P22309 26-533): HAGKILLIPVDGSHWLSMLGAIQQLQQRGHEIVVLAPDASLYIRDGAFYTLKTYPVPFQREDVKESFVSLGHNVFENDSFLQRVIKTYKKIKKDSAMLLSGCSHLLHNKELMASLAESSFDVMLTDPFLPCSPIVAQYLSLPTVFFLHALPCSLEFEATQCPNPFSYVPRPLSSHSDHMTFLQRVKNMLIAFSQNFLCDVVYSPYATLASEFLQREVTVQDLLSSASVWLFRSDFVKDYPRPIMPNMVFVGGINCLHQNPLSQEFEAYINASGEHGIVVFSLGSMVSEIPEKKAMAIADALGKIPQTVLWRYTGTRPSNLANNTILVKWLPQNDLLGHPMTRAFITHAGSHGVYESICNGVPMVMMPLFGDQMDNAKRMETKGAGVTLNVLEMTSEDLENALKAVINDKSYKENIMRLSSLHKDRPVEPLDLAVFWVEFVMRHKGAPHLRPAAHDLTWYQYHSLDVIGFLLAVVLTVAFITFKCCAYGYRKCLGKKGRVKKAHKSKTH

UGT1A3 = molecular target: T4, UGT1A3 (Homo sapiens, UniProt P35503); assay: Reaction phenotyping, rUGT1A3; details: recombinant UGT1A3, pH 7.4
T4 sequence (P35503 29-534): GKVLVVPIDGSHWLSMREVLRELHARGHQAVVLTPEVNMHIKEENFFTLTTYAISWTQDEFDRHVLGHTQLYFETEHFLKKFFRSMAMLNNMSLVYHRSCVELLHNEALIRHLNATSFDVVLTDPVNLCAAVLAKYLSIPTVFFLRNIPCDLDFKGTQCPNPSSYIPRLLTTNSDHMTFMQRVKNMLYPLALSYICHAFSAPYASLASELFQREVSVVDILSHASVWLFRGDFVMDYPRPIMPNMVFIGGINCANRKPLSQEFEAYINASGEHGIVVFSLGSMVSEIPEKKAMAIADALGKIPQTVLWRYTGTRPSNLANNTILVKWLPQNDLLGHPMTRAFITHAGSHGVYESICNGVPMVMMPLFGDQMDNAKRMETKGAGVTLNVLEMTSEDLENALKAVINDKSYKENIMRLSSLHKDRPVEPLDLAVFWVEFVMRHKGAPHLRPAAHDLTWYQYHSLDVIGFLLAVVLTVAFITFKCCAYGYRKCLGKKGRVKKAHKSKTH

UGT2B7 = molecular target: T5, UGT2B7 (Homo sapiens, UniProt P16662); assay: Enzyme inhibition assay, UGT2B7; type: in vitro ADME; design: from tissue; details: HLM; UGT2B7 zidovudine glucuronidation
T5 sequence (P16662 24-529): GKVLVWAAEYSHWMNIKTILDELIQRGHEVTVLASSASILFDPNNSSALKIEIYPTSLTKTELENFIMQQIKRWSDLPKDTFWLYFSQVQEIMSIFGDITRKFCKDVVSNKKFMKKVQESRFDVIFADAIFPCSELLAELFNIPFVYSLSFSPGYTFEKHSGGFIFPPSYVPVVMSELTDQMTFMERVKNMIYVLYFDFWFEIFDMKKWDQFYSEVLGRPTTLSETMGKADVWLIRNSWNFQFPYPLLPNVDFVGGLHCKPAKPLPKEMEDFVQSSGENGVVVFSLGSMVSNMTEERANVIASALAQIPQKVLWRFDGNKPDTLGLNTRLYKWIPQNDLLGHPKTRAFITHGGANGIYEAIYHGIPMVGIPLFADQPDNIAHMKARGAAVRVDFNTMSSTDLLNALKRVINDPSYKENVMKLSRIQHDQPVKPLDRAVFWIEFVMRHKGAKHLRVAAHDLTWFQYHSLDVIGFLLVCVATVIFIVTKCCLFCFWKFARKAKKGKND

CYP1A1 = molecular target: T6, CYP1A1 (Homo sapiens, UniProt P04798); assay: Enzyme inhibition assay, CYP1A1; type: in vitro ADME; design: purchased Xenotech LLC; details: Recombinant CYP1A1; phenacetin-O-deethylation
T6 sequence (P04798 1-512): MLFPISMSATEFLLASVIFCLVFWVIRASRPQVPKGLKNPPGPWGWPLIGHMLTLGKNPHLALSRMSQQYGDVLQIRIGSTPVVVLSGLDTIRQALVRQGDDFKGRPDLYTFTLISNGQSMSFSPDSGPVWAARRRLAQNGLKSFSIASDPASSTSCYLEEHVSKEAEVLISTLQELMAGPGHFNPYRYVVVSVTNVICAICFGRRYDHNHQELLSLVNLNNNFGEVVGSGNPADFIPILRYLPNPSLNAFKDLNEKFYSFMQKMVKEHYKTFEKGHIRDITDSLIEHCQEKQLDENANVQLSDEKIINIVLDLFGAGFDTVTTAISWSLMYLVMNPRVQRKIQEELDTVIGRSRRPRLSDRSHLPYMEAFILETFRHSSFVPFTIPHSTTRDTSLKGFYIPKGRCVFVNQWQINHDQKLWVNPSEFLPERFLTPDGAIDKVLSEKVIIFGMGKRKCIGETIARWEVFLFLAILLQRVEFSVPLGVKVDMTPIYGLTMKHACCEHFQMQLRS

UGT1A4 = molecular target: T7, UGT1A4 (Homo sapiens, UniProt P22310); assay: Enzyme inhibition assay, UGT1A4
T7 sequence (P22310 29-534): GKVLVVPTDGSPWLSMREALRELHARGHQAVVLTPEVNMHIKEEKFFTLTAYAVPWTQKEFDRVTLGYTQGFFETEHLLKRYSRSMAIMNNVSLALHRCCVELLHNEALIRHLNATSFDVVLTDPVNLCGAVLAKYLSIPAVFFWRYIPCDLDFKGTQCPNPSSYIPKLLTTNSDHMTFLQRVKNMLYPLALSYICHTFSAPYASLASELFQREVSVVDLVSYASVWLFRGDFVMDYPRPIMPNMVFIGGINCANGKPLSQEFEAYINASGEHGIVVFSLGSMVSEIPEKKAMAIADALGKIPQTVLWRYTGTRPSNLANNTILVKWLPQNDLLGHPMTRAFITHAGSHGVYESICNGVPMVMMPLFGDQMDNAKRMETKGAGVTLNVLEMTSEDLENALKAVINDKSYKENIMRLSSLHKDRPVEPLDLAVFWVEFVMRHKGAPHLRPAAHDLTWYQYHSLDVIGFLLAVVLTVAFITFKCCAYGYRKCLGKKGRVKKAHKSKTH

CYP3A4 = CYP3A4 (Homo sapiens, UniProt P08684); assay: Reaction phenotyping, rCYP3A4; details: recombinant enzyme, pH 7.4
CYP3A4, sequence (P08684 whole entry): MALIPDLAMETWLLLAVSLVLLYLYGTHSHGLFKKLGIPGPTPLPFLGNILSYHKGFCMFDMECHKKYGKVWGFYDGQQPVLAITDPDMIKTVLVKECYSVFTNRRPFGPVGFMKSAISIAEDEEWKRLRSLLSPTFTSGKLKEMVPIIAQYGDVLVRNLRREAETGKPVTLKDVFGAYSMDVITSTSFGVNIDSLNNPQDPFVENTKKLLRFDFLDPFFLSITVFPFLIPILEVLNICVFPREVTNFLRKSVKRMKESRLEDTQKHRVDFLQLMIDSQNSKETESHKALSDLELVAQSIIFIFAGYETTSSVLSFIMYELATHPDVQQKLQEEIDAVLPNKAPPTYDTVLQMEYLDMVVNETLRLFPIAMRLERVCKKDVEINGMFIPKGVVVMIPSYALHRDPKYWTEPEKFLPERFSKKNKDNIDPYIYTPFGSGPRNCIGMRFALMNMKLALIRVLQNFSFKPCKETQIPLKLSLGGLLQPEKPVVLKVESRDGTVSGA

[1] = Reaction phenotyping, HLM with NADPH; type: in vitro ADME, human; details: human, human liver microsomes, pH 7.4; HLM (Phase 1), Midazolam (1 µM); read-out: Known Substrate (% Remaining at 60 min)
UGT1A9 = molecular target: T8, UGT1A9 (Homo sapiens, UniProt O60656); assay: Enzyme inhibition assay, UGT1A9; type: in vitro ADME; design: from tissue; details: HLM; UGT1A9 mycophenolic acid glucuronidation
T8 sequence (O60656 26-530): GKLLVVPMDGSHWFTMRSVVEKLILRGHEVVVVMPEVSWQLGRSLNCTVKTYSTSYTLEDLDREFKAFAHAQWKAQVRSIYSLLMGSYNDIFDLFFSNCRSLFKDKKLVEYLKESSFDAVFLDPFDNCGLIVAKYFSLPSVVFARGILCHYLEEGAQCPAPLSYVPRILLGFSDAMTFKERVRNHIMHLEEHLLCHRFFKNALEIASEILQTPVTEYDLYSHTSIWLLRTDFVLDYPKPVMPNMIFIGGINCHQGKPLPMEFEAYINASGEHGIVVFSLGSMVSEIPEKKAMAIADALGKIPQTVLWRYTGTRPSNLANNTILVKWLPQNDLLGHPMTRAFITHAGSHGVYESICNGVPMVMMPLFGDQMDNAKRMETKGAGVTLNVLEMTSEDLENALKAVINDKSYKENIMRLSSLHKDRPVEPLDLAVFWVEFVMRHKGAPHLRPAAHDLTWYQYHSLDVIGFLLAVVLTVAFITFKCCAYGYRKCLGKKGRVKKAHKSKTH

CYP1A2 = assay: Enzyme induction assay, CYP1A2 activity in primary human hepatocytes; type: in vitro ADME; details: plated cryopreserved primary human hepatocytes, O-deethylation
CYP2B6 = assay: Enzyme induction assay, CYP2B6 activity in primary human hepatocytes; details: CYP2B6 bupropion hydroxylation, DPV 303 nM, phenobarbital 1 mM
rUGT1A1 = rUGT1A1 (Homo sapiens, UniProt P22309); assay: Reaction phenotyping, rUGT1A1; details: rUGT1A1, SN38 (0.5 µM)

CYP2C19, sequence (P33261 whole entry): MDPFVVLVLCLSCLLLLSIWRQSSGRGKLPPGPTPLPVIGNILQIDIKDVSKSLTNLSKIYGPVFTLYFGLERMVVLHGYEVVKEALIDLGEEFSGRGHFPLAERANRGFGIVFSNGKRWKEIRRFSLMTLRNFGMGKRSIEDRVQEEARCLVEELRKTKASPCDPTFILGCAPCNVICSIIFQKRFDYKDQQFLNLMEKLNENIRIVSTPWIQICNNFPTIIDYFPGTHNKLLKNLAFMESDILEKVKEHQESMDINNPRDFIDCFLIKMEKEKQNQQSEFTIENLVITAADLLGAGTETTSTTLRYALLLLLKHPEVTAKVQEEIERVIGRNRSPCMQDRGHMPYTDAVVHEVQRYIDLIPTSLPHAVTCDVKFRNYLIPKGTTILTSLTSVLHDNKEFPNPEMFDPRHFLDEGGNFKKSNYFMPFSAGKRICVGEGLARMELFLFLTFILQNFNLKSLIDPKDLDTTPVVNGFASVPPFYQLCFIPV

CCC1(c2ccccc2)C(=O)NC(=O)N(Cc2ccccc2)C1=O (single isomer, unassigned; (-)) [(-)-N-3-benzyl-phenobarbital]
IC50 (CYP2C19): 148 nM

O=c1cc(-c2ccc(O)c(-c3c(O)cc(O)c4c(=O)cc(-c5ccc(O)cc5)oc34)c2)oc2cc(O)cc(O)c12 [Amentoflavone]
IC50 (UGT1A7): 46.1 nM
IC50 (UGT1A8): 5.57 µM

COC(=O)N[C@H](C(=O)N[C@@H](Cc1ccccc1)[C@@H](O)CN(Cc1ccc(-c2ccccn2)cc1)NC(=O)[C@@H](NC(=O)OC)C(C)(C)C)C(C)(C)C [Atazanavir]
IC50 (UGT1A1): 110 nM

C[C@H](CCC(=O)O)[C@H]1CC[C@H]2[C@@H]3[C@H](O)C[C@@H]4C[C@H](O)CC[C@]4(C)[C@H]3CC[C@]12C [Chenodeoxycholic acid]
remaining at 1 h, 2 µM (UGT1A3): 59.4%

OC(Cn1cncn1)(Cn1cncn1)c1ccc(F)cc1F [Fluconazole]
IC50 (UGT2B7): 712 µM

Cc1nc2c([nH]1)c(=O)n(C)c(=O)n2Cc1ccco1 [Furafylline]
IC50 (CYP1A1): 4.76 µM

C[C@@H]1CC[C@@]2(OC1)O[C@H]1C[C@H]3[C@@H]4CC[C@H]5C[C@@H](O)CC[C@]5(C)[C@H]4CC(=O)[C@]3(C)[C@H]1[C@@H]2C [Hecogenin]
IC50 (UGT1A4): 960 nM

Cc1ncc2n1-c1ccc(Cl)cc1C(c1ccccc1F)=NC2 [Midazolam]
remaining at 1 h, 1 µM (CYP3A4): 4.02%
remaining at 1 h [1]: 0%

O=C(O)c1cccnc1Nc1cccc(C(F)(F)F)c1 [Niflumic acid]
IC50 (UGT1A9): 150 nM

COc1ccc2[nH]c([S+]([O-])Cc3ncc(C)c(OC)c3C)nc2c1 (stereo not drawn) [Omeprazole]
fold induction at 72 h, 303 nM (CYP1A2; donor HU2036, probe phenacetin (100 µM)): 14 ± 2.43
fold induction at 72 h, 303 nM (CYP1A2; donor HU2068, probe phenacetin (100 µM)): 35.5 ± 2.03
fold induction at 72 h, 303 nM (CYP1A2; donor HU8373, probe phenacetin (100 µM)): 32.7 ± 6.67

CCC1(c2ccccc2)C(=O)NC(=O)NC1=O [Phenobarbital]
fold induction at 72 h, 303 nM (CYP2B6; donor HU2036, over negative control): 7.63 ± 0.82
fold induction at 72 h, 303 nM (CYP2B6; donor HU2068, over negative control): 6.43 ± 1.02
fold induction at 72 h, 303 nM (CYP2B6; donor HU8373, over negative control): 10.7 ± 0.61

CCc1c2c(nc3ccc(O)cc13)-c1cc3c(c(=O)n1C2)COC(=O)[C@]3(O)CC [SN38]
Known Substrate (% Remaining at 60 min) (rUGT1A1): SN38 (74.87) %
